How the values were obtained:
Assay type in all cases: in vivo, rat
[1] = tested on: distal branches of the sympathetic nerve innervating the interscapular brown adipose tissue; test: Brown adipose tissue sympathetic nerve activity (BAT-SNA) after intragastric administration, Test Example 1; conditions: urethane-anesthetized male rats, measured for 60 minutes, FIG. 2
Method: (§1) The effect of the intragastric administration of the compound represented by Structural Formula (1) on the activity of the sympathetic nerve innervating the white adipose tissue, the brown adipose tissue, the adrenal gland, or the liver was tested in the following manner. For the experiment, male Whistar rats (approximately 9 weeks old) each having a body weight of approximately 300 g were kept in a 24° C. thermostatic animal room for 1 week or longer with a 12-hour light-dark cycle (lighting from 8:00 to 20:00). On the day of the experiment, the rats were fasted for 3 hours, followed by anesthetizing with urethane. A cannula for intragastric administration was inserted into each of the rats, and then distal branches of the sympathetic nerve innervating the right epididymal white adipose tissue, the interscapular brown adipose tissue, the left adrenal gland, or the liver were lifted with a silver electrode, and the electrical activity thereof was measured. When the measurement value stabilized (at approximately 13:00), an aqueous solution of the compound represented by Structural Formula (1) (produced by Tokyo Chemical Industry Co., Ltd.) was intragastrically administered using the cannula at a dose of 15 mg/0.5 mL/300 g of body weight, 1.5 mg/0.5 mL/300 g of body weight, 0.15 mg/0.5 mL/300 g of body weight, or 0.015 mg/0.5 mL/300 g of body weight, and the change in the neural activity of the distal branches of the above sympathetic nerves was measured electrophysiologically for 60 minutes. In addition, as a control, water serving as a solvent was intragastrically administered using the cannula at a dose of 0.5 mL/300 g of body weight, and the change in the neural activity of the distal branches of the above sympathetic nerves was measured electrophysiologically for 60 minutes. […] The data of the neural activity was analyzed as the mean value of the firing rate per 5 seconds (pulse/5 s) every 5 minutes, and represented by a percentage relative to the mean value (a value at 0 minutes) at 5 minutes before the onset of stimulation being determined as 100%. […]

[2] = tested on: distal branches of the sympathetic nerve innervating the left adrenal gland; test: Adrenal sympathetic nerve activity (ASNA) after intragastric administration, Test Example 1; conditions: urethane-anesthetized male rats, measured for 60 minutes, FIG. 3
Method: The effect of the intragastric administration of the compound represented by Structural Formula (1) on the activity of the sympathetic nerve innervating the white adipose tissue, the brown adipose tissue, the adrenal gland, or the liver was tested in the following manner. For the experiment, male Whistar rats (approximately 9 weeks old) each having a body weight of approximately 300 g were kept in a 24° C. thermostatic animal room for 1 week or longer with a 12-hour light-dark cycle (lighting from 8:00 to 20:00). On the day of the experiment, the rats were fasted for 3 hours, followed by anesthetizing with urethane. A cannula for intragastric administration was inserted into each of the rats, and then distal branches of the sympathetic nerve innervating the right epididymal white adipose tissue, the interscapular brown adipose tissue, the left adrenal gland, or the liver were lifted with a silver electrode, and the electrical activity thereof was measured. When the measurement value stabilized (at approximately 13:00), an aqueous solution of the compound represented by Structural Formula (1) (produced by Tokyo Chemical Industry Co., Ltd.) was intragastrically administered using the cannula at a dose of 15 mg/0.5 mL/300 g of body weight, 1.5 mg/0.5 mL/300 g of body weight, 0.15 mg/0.5 mL/300 g of body weight, or 0.015 mg/0.5 mL/300 g of body weight, and the change in the neural activity of the distal branches of the above sympathetic nerves was measured electrophysiologically for 60 minutes. In addition, as a control, water serving as a solvent was intragastrically administered using the cannula at a dose of 0.5 mL/300 g of body weight, and the change in the neural activity of the distal branches of the above sympathetic nerves was measured electrophysiologically for 60 minutes. […] The data of the neural activity was analyzed as the mean value of the firing rate per 5 seconds (pulse/5 s) every 5 minutes, and represented by a percentage relative to the mean value (a value at 0 minutes) at 5 minutes before the onset of stimulation being determined as 100%. FIG. 3 illustrates, as a percentage with respect to the mean value (a value at 0 minutes) at 5 minutes before the onset of stimulation being determined as 100%, the result of the change in the neural activity of distal branches of the sympathetic nerves for the adrenal gland (adrenal sympathetic nerve activity, ASNA) when the aqueous solution including 15 mg, 1.5 mg, 0.15 mg, or 0.015 mg of the compound represented by Structural Formula (1) was intragastrically administered at a dose of 0.5 mL/300 g of body weight, or water serving as the solvent was intragastrically administered at a dose of 0.5 mL/300 g of body weight.

[3] = tested on: distal branches of the sympathetic nerve innervating the right epididymal white adipose tissue; test: White adipose tissue sympathetic nerve activity (WAT-SNA) after intragastric administration, Test Example 1; conditions: urethane-anesthetized male rats, measured for 60 minutes, FIG. 1
Method: The effect of the intragastric administration of the compound represented by Structural Formula (1) on the activity of the sympathetic nerve innervating the white adipose tissue, the brown adipose tissue, the adrenal gland, or the liver was tested in the following manner. For the experiment, male Whistar rats (approximately 9 weeks old) each having a body weight of approximately 300 g were kept in a 24° C. thermostatic animal room for 1 week or longer with a 12-hour light-dark cycle (lighting from 8:00 to 20:00). On the day of the experiment, the rats were fasted for 3 hours, followed by anesthetizing with urethane. A cannula for intragastric administration was inserted into each of the rats, and then distal branches of the sympathetic nerve innervating the right epididymal white adipose tissue, the interscapular brown adipose tissue, the left adrenal gland, or the liver were lifted with a silver electrode, and the electrical activity thereof was measured. […] In addition, as a control, water serving as a solvent was intragastrically administered using the cannula at a dose of 0.5 mL/300 g of body weight, and the change in the neural activity of the distal branches of the above sympathetic nerves was measured electrophysiologically for 60 minutes. […]

[4] = tested on: distal branches of the sympathetic nerve innervating the liver; test: Hepatic sympathetic nerve activity (Hepatic-SNA) after intragastric administration, Test Example 1; conditions: urethane-anesthetized male rats, measured for 60 minutes, FIG. 4
Method: as §1

[5] = 0.15 mg/0.5 mL/300 g of body weight
[6] = 1.5 mg/0.5 mL/300 g of body weight
[7] = 15 mg/0.5 mL/300 g of body weight

COc1cc(CCC(=O)O)ccc1O [3-(4-hydroxy-3-methoxyphenyl) propionic acid]
change in brown adipose tissue sympathetic nerve activity (BAT-SNA) versus water control [1, 5]: higher than the BAT-SNA value of the group to which water serving as the solvent was administered | change in brown adipose tissue sympathetic nerve activity (BAT-SNA) versus water control [1, 6]: higher than the BAT-SNA value of the group to which water serving as the solvent was administered | change in brown adipose tissue sympathetic nerve activity (BAT-SNA) versus water control [1, 7]: higher than the BAT-SNA value of the group to which water serving as the solvent was administered | change in adrenal sympathetic nerve activity (ASNA) versus water control ([2]; 0.015 mg/0.5 mL/300 g of body weight): higher than the ASNA value of the group to which water serving as the solvent was administered | change in adrenal sympathetic nerve activity (ASNA) versus water control [2, 5]: higher than the ASNA value of the group to which water serving as the solvent was administered | change in adrenal sympathetic nerve activity (ASNA) versus water control [2, 6]: higher than the ASNA value of the group to which water serving as the solvent was administered | change in adrenal sympathetic nerve activity (ASNA) versus water control [2, 7]: higher than the ASNA value of the group to which water serving as the solvent was administered | change in white adipose tissue sympathetic nerve activity (WAT-SNA) versus water control [3, 6]: higher than the WAT-SNA value of the group to which water serving as the solvent was administered | change in white adipose tissue sympathetic nerve activity (WAT-SNA) versus water control [3, 7]: higher than the WAT-SNA value of the group to which water serving as the solvent was administered | change in hepatic sympathetic nerve activity (Hepatic-SNA) versus water control [4, 5]: higher than the Hepatic-SNA value of the group to which water serving as the solvent was administered | change in hepatic sympathetic nerve activity (Hepatic-SNA) versus water control [4, 6]: higher than the Hepatic-SNA value of the group to which water serving as the solvent was administered | change in hepatic sympathetic nerve activity (Hepatic-SNA) versus water control [4, 7]: higher than the Hepatic-SNA value of the group to which water serving as the solvent was administered

Source: patent publication US20250302783A1, “SYMPATHETIC NERVE ACTIVATION AGENT AND SYMPATHETIC NERVE ACTIVATION COMPOSITION” (MARUZEN PHARMACEUTICALS CO., LTD., priority 2022, published 2025)
